These results are taken from ChEMBL document CHEMBL1240346, “AC220 is a uniquely potent and selective inhibitor of FLT3 for the treatment of acute myeloid leukemia (AML)” (Blood, 2009).

The nature of data set [1]: in vitro. As to conditions: human, A375 cells.
Description: Toxicity against human A375 cells after 72 hrs by cell titer-blue assay
Data set [2] in a line: in vivo. As to conditions: nu/nu, mouse, plasma, po, 10 mg/kg.
Data set [3] can be described thus: in vivo. As to conditions: nu/nu, mouse, po, 10 mg/kg.
The nature of data set [4]: in vivo. As to conditions: nu/nu, mouse, po, 10 mg/kg. The source holds these as a separate data set.
The test system of data set [5] is MV4-11. Nature of the data set: cells. To be noted: Homo sapiens, MV4-11, 72 h.
Description: Cytotoxicity against human MV4-11 cells after 72 hrs by cell titer-blue assay
The target of data set [6] is Ephrin type-A receptor 7 (Homo sapiens, UniProt Q15375).
Description: Binding affinity to EPHA7
Data set [7] addresses T1, Poly [ADP-ribose] polymerase tankyrase-2 (Homo sapiens, UniProt Q9H2K2).
T1 sequence (Q9H2K2 whole entry): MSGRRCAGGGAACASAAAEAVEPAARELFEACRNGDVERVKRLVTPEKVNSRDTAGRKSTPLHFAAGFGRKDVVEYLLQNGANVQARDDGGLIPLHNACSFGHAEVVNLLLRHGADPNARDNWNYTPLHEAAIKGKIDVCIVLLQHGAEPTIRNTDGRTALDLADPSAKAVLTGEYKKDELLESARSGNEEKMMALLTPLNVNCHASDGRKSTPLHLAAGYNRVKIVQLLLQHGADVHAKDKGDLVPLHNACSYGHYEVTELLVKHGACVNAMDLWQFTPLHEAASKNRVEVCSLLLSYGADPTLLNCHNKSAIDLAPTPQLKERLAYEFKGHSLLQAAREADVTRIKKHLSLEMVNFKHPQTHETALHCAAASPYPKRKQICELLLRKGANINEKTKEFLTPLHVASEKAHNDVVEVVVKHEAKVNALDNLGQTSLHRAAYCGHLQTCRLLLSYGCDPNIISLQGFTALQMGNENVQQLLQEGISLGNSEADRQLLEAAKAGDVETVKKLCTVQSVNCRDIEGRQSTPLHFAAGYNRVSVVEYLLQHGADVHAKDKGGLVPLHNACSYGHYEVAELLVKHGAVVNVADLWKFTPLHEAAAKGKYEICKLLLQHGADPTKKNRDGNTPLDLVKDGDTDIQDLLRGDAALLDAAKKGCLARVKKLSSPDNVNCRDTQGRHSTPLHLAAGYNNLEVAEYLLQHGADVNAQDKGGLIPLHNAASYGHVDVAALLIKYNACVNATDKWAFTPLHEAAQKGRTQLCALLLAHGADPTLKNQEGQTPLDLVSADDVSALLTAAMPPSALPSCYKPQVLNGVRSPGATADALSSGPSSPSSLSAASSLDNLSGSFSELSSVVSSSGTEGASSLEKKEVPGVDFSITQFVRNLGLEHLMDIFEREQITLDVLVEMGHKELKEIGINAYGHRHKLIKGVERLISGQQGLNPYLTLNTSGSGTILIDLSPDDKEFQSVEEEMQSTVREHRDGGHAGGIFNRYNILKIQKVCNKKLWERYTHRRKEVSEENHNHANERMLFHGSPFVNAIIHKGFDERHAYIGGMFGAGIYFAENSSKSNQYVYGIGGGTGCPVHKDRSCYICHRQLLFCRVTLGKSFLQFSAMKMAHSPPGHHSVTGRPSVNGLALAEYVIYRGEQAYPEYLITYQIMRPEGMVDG

The nature of data set [8]: in vitro. To be noted: mouse, plasma.
Description: Plasma protein binding in mouse

Chain of Ephrin type-A receptor 7 (Q15375 whole entry): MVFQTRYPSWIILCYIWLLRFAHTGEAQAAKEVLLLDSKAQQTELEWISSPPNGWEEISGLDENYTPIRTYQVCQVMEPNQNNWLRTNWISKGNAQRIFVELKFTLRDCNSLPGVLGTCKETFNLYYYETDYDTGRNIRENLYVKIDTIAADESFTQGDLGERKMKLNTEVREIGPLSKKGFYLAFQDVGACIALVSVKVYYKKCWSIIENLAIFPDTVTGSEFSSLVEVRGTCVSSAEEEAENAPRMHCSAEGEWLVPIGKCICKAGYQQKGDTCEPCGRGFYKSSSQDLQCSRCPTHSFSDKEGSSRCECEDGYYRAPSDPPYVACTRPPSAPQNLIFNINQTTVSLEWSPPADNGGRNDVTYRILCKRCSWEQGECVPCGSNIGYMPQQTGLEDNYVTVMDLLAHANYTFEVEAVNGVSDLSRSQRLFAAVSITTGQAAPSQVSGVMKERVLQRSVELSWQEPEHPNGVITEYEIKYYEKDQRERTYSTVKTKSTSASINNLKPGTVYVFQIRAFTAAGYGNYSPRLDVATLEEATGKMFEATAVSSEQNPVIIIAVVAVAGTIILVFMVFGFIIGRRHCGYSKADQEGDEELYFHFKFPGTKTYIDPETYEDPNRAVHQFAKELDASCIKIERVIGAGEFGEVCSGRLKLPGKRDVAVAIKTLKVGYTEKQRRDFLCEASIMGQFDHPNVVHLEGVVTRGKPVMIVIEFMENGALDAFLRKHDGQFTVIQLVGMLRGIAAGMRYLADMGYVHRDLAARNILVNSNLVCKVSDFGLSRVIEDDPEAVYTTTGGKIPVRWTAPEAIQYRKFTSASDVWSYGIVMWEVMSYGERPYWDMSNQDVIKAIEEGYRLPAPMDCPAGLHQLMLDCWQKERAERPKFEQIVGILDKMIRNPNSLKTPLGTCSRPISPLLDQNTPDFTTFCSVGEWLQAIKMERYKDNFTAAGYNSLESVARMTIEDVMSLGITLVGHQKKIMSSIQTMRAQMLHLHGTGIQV

Take `CO[C@@H]1[C@H](N(C)C(=O)c2ccccc2)C[C@H]2O[C@]1(C)n1c3ccccc3c3c4c(c5c6ccccc6n2c5c31)C(=O)N[C@H]4O` [CGP-52421]: the IC50 (commonly the concentration that gives 50% inhibition) at 72 h in data set [1] came to 530 nM. The area under the curve AUC(0-t) – broadly, exposure summed from dosing to a finite time, without extrapolation to infinity – at 24 h in data set [2] is 8.4 µM·h. In addition, the Cmax (usually the peak of the concentration-time curve) in data set [3] turned out to be 2300 nM. The Tmax (in general, the time at which the peak concentration occurs) in data set [4] worked out at 40.2 min. In data set [5], this compound showed a half-inhibitory concentration (IC50) of 64 nM. For the same compound, the Kd – broadly, the concentration at which binding is half-saturated – in data set [6] was above 10000 nM.

In turn, `COc1cc2c(N3CCN(C(=O)Nc4ccc(OC(C)C)cc4)CC3)ncnc2cc1OCCCN1CCCCC1` [TANDUTINIB] came in with a Kd in data set [7] above 10000 nM. Moreover, the half-maximal inhibitory concentration (IC50) at 72 h in data set [1] was above 10000 nM. The compound also displayed an exposure AUC(0-t) at 24 h in data set [2] of 0.28 µM·h. This compound also yielded a Cmax in data set [3] of 81 nM. In addition, in data set [8], the unbound share (fraction unbound) (commonly the share of the substance not bound to proteins or other matrix) is 0.02. The time of peak concentration (Tmax) in data set [4] was determined as 60 min. In data set [5], this compound returned an IC50 of 60 nM.
